These are literature values, as cited in patent publication US20100068280A1, “SUSTAINED RELEASE PHARMACEUTICAL DOSAGE FORM CONTAINING PHENYLEPHRINE” (priority 2006, published 2010).

The structures appear in SMILES notation.

For this data set the following is noted: in vivo.

For the molecule `CN1CCC(=C2c3ccccc3CCc3cccnc32)CC1` [Azatadine], the elimination half-life was 9 to 12 h.
